The values that follow come from PMC12520178, “Turn-engineering tunes the conformational rigidity of β-hairpin AMPs in achieving membrane selectivity and killing drug-resistant ESKAPE pathogens” (Chemical Science, 2025).

For one data set, the system named is Escherichia coli. In kind it is cell-based.
Data set [1] has as its system human red blood cells. The experiment in a line: Hemolysis assay against human red blood cells. Conditions: ≥10% hemolysis against human RBCs; 4% (v/v) hRBCs in PBS, 1.5 h at 37 °C, 405 nm; n = 3.
Another data set relates to Klebsiella pneumoniae. It counts as cell-based.
Data set [2] has as its system human red blood cells. Conditions: red cells of human.
For a further data set, the system named is Staphylococcus aureus. The experiment in a line: microbe, parasite or virus in culture. In kind it is cell-based.
For a further data set, the system named is Acinetobacter baumannii. In kind it is cell-based.
The subject of the next data set is Pseudomonas aeruginosa. It counts as cell-based.
In data set [3] the test system is human red blood cells. The settings on record: cited from earlier work. The source says:
These motifs were chosen based on their ability to induce 81% (-D-Ala-NMeArg–) and 92% (-D-Val-NMeArg-) β-hairpin folded fractions within a 12-mer linear peptide in aqueous solution.[24]

Where [4] appears, read: against E. coli, microbroth dilution, 5x10^5 cfu/mL, 20-24 h at 37 °C, turbidity 600 nm, n = 5, median.

What is called MIC90 is the lowest concentration that inhibits either 90% of growth or 90% of the strains tested, depending on the study. A high value points to lower susceptibility.

≈ marks a conversion by molar mass, not a printed value. Like-named read-outs stand apart in the source and are kept apart here. Where a SMILES comes first, the peptide text is derived from it. Bridges are numbered along the chain shown (N, C = ends). [ ]: non-standard residue; d: D form. NMeR = CN[C@@H](CCCNC(=N)N)C(=O)O

In the case of `CC(C)[C@@H]1NC(=O)[C@H](CCCNC(=N)N)NC(=O)[C@H](Cc2ccccc2)NC(=O)[C@@H](NC(=O)[C@H](Cc2c[nH]c3ccccc23)NC(=O)[C@H](CCCNC(=N)N)NC(=O)[C@@H](N)CCCNC(=N)N)CSSC[C@@H](C(=O)N[C@@H](CCCNC(=N)N)C(N)=O)NC(=O)[C@H](CCCCN)NC(=O)[C@H](CCCNC(=N)N)NC(=O)[C@H](Cc2ccc(O)cc2)NC(=O)[C@@H]2CSSC[C@H](NC1=O)C(=O)N[C@@H](Cc1ccc(O)cc1)C(=O)N[C@H](C)C(=O)N(C)[C@@H](CCCNC(=N)N)C(=O)N[C@@H](Cc1ccccc1)C(=O)N2` [3a] (H-RRWCFRVCY[dA][NMeR]FCYRKCR-NH2; disulfide 4-17, 8-13), the “MIC90” value in the data set with Escherichia coli (setting [4]) came out at 0.7 µM (≈ 1.74 µg/mL). In addition, in the data set on human red blood cells [1], the “MHC10 (μM), minimum hemolytic concentration” value (from here on “MHC10 (μM)”) stood at 12.5 µM.
Consider `CC(C)[C@@H]1NC(=O)[C@H](CCCNC(=N)N)NC(=O)[C@H](Cc2ccccc2)NC(=O)[C@@H](NC(=O)[C@H](Cc2c[nH]c3ccccc23)NC(=O)[C@H](CCCNC(=N)N)NC(=O)[C@@H](N)CCCNC(=N)N)CSSC[C@@H](C(=O)N[C@@H](CCCNC(=N)N)C(N)=O)NC(=O)[C@H](CCCCN)NC(=O)[C@H](CCCNC(=N)N)NC(=O)[C@H](Cc2ccc(O)cc2)NC(=O)[C@@H]2CSSC[C@H](NC1=O)C(=O)N[C@@H](Cc1ccc(O)cc1)C(=O)N[C@H](C(C)C)C(=O)N(C)[C@@H](CCCNC(=N)N)C(=O)N[C@@H](Cc1ccccc1)C(=O)N2` [3b] (H-RRWCFRVCY[dV][NMeR]FCYRKCR-NH2; disulfide 4-17, 8-13), for which, in the data set with Escherichia coli (setting [4]), the “MIC90” value is 0.9 µM (≈ 2.26 µg/mL). Also, the “MHC10 (μM)” value in the data set with human red blood cells [1] stood at 6.25 µM.
The matching figures for `CC[C@H](C)[C@@H]1NC(=O)[C@H](CCCNC(=N)N)N(C)C(=O)[C@@H](C)NC(=O)[C@H](Cc2ccc(O)cc2)NC(=O)[C@@H]2CSSC[C@H](NC1=O)C(=O)N[C@@H](Cc1ccc(O)cc1)C(=O)N[C@@H](CCCNC(=N)N)C(=O)N[C@@H](CCCNC(=N)N)C(=O)N[C@H](C(=O)N[C@@H](CCCNC(=N)N)C(N)=O)CSSC[C@H](NC(=O)[C@H](Cc1c[nH]c3ccccc13)NC(=O)[C@@H](N)CCCCN)C(=O)N[C@@H](Cc1ccccc1)C(=O)N[C@@H](CCCNC(=N)N)C(=O)N[C@@H](C(C)C)C(=O)N2` [4a] (H-KWCFRVCY[dA][NMeR]ICYRRCR-NH2; disulfide 3-16, 7-12): 0.3 µM (≈ 0.688 µg/mL) and 12.5 µM.
The corresponding values for `CC[C@H](C)[C@@H]1NC(=O)[C@H](CCCNC(=N)N)N(C)C(=O)[C@@H](C(C)C)NC(=O)[C@H](Cc2ccc(O)cc2)NC(=O)[C@@H]2CSSC[C@H](NC1=O)C(=O)N[C@@H](Cc1ccc(O)cc1)C(=O)N[C@@H](CCCNC(=N)N)C(=O)N[C@@H](CCCNC(=N)N)C(=O)N[C@H](C(=O)N[C@@H](CCCNC(=N)N)C(N)=O)CSSC[C@H](NC(=O)[C@H](Cc1c[nH]c3ccccc13)NC(=O)[C@@H](N)CCCCN)C(=O)N[C@@H](Cc1ccccc1)C(=O)N[C@@H](CCCNC(=N)N)C(=O)N[C@@H](C(C)C)C(=O)N2` [4b] (H-KWCFRVCY[dV][NMeR]ICYRRCR-NH2; disulfide 3-16, 7-12) are 0.2 µM (≈ 0.464 µg/mL) and 12.5 µM.
`CC[C@H](C)[C@H](NC(=O)[C@H](CCCNC(=N)N)N(C)C(=O)[C@@H](C)NC(=O)[C@H](Cc1ccc(O)cc1)NC(=O)[C@@H](NC(=O)[C@@H](NC(=O)[C@H](CCCNC(=N)N)NC(=O)[C@H](Cc1ccccc1)NC(=O)[C@@H](NC(=O)[C@H](Cc1c[nH]c2ccccc12)NC(=O)[C@@H](N)CCCCN)[C@@H](C)O)C(C)C)[C@@H](C)O)C(=O)N[C@H](C(=O)N[C@@H](Cc1ccc(O)cc1)C(=O)N[C@@H](CCCNC(=N)N)C(=O)N[C@@H](CCCNC(=N)N)C(=O)N[C@H](C(=O)N[C@@H](CCCNC(=N)N)C(N)=O)[C@@H](C)O)[C@@H](C)O` [4d] (H-KWTFRVTY[dA][NMeR]ITYRRTR-NH2): the “MIC (μM) kp” value against Klebsiella pneumoniae came out at 1.6 µM (≈ 3.66 µg/mL). In the data set with human red blood cells [2], the “MHC10 (μM)” value turned out to be 100 µM. Also, in the data set on Escherichia coli, the “MIC90” value was 0.4 µM (≈ 0.915 µg/mL). The “MIC (μM) sa” value against Staphylococcus aureus was 3.1 µM (≈ 7.09 µg/mL). Also, in the data set on Acinetobacter baumannii, the “MIC (μM) ab” value came to 0.8 µM (≈ 1.83 µg/mL). Further, in the data set with Pseudomonas aeruginosa, the “MIC (μM) pa” value amounted to 1.6 µM (≈ 3.66 µg/mL).
With `CC(C)[C@@H]1NC(=O)CNC(=O)[C@H](CCCNC(=N)N)NC(=O)[C@H](C(C)C)NC(=O)[C@H](CCCNC(=N)N)NC(=O)[C@H](C)NC(=O)[C@H](Cc2ccc(O)cc2)NC(=O)[C@H](C(C)C)NC(=O)[C@@H](NC(=O)[C@H](Cc2c[nH]c3ccccc23)NC(=O)[C@@H](N)CCCNC(=N)N)CSSC[C@@H](C(=O)N[C@@H](Cc2c[nH]c3ccccc23)C(=O)O)NC(=O)[C@H](CCCNC(=N)N)NC(=O)[C@H](CCCNC(=N)N)NC(=O)[C@H](Cc2ccc(O)cc2)NC(=O)[C@H](CCCNC(=N)N)NC1=O` [compound 1, reference compound] (H-RWCVYARVRGVRYRRCW-OH; disulfide 3-16), the “MIC (μM) kp” value in the data set with Klebsiella pneumoniae was 0.8 µM (≈ 1.83 µg/mL). Besides, in the data set on Escherichia coli, the “MIC90” value came out at 1.2 µM (≈ 2.74 µg/mL) and the “MIC (μM) ec” value was 1.2 µM (≈ 2.74 µg/mL). In addition, in the data set on Staphylococcus aureus, the “MIC (μM) sa” value is 1.6 µM (≈ 3.65 µg/mL). Also, the “MIC (μM) ab” value in the data set with Acinetobacter baumannii amounted to 0.8 µM (≈ 1.83 µg/mL). Further, the “hemolysis (toxicity)” value with human red blood cells [3] is “no measurable hemolysis”. The “MIC (μM) pa” value against Pseudomonas aeruginosa came out at 3.12 µM (≈ 7.13 µg/mL).
Regarding `CC(C)C[C@H](NC(=O)[C@H](CCCNC(=N)N)NC(=O)CNC(=O)CNC(=O)[C@@H](N)CCCNC(=N)N)C(=O)N[C@H]1CSSC[C@@H](C(=O)N[C@H](C(=O)NCC(=O)N[C@@H](CCCNC(=N)N)C(N)=O)C(C)C)NC(=O)[C@H](C(C)C)NC(=O)[C@@H]2CSSC[C@H](NC(=O)[C@H](Cc3ccc(O)cc3)NC1=O)C(=O)N[C@@H](CCCNC(=N)N)C(=O)N[C@@H](CCCNC(=N)N)C(=O)N[C@@H](CCCNC(=N)N)C(=O)N[C@@H](Cc1ccccc1)C(=O)N2` [compound 2, reference compound], in the data set with Klebsiella pneumoniae, the “MIC (μM) kp” value worked out at 0.6 µM (≈ 1.29 µg/mL). Moreover, in the data set on human red blood cells [2], the “MHC10 (μM)” value was 3.12 µM. For the same molecule, in the data set on Escherichia coli, the “MIC90” value is 0.3 µM (≈ 0.647 µg/mL) and the “MIC (μM) ec” value is 0.3 µM (≈ 0.647 µg/mL). The “MIC (μM) sa” value against Staphylococcus aureus was 3.1 µM (≈ 6.68 µg/mL). For the same molecule, in the data set on Acinetobacter baumannii, the “MIC (μM) ab” value stood at 0.4 µM (≈ 0.862 µg/mL). Also, the “MIC (μM) pa” value against Pseudomonas aeruginosa stood at 0.6 µM (≈ 1.29 µg/mL).
